Results from ChEMBL document CHEMBL1201862, “PubChem BioAssay data set” (2004).
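Grown in 96-well plates, cells were treated for 48 hours with each compound at five concentrations. Insufficient inhibition: endpoint recorded as highest concentration tested. The concentration for 50% growth inhibition is given as GI50.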 The source made the active and inactive calls. No stated cut-off is given here; in the data, active = GI50 up to about 1.1 µM and inactive = higher.

Key:
Experiment in all cases: inhibition of tumour cell growth, NCI panel, 48 h
HCC 2998 = system: HCC 2998
HCT-15 = system: HCT-15
HL-60 = system: HL-60
HOP-92 = system: HOP-92
LOX IMVI = system: LOX IMVI
M14 = system: M14
NCI-H226 = system: NCI-H226
RPMI-8226 = system: RPMI-8226
SF-268 = system: SF-268
SF-295 = system: SF-295
SK-MEL-2 = system: SK-MEL-2
SK-MEL-5 = system: SK-MEL-5
SN12C = system: SN12C
SR = system: SR
SW-620 = system: SW-620
UACC-257 = system: UACC-257
Hs-578T = system: Hs-578T
NCI/ADR-RES = system: NCI/ADR-RES
T47D = system: T47D
MDA-N = system: MDA-N

Structure (SMILES)	GI50 (HCC 2998)	GI50 (HCT-15) [µM]	GI50 (HL-60)	GI50 (HOP-92)	GI50 (LOX IMVI)	GI50 (M14)	GI50 (NCI-H226)	GI50 (RPMI-8226)	GI50 (SF-268)	GI50 (SF-295)	GI50 (SK-MEL-2)	GI50 (SK-MEL-5)	GI50 (SN12C)	GI50 (SR)	GI50 (SW-620)	GI50 (UACC-257)	GI50 (Hs-578T)	GI50 (NCI/ADR-RES)	GI50 (T47D)	GI50 (MDA-N)
CC(C)=CC(=O)Cc1nc2cc(C)c(C)cc2[nH]c1=O	> 100 µM (inactive)	> 100	> 100 µM (inactive)	24.9 µM (inactive)	> 100 µM (inactive)	> 100 µM (inactive)	> 100 µM (inactive)	> 100 µM (inactive)	99.3 µM (inactive)	90.4 µM (inactive)	> 100 µM (inactive)	> 100 µM (inactive)	> 100 µM (inactive)	> 100 µM (inactive)	> 100 µM (inactive)	> 100 µM (inactive)				
Cc1cc2ccccc2n2c1nc1ccc(O)cc12	> 10 µM (inactive)	> 10	> 10 µM (inactive)			> 10 µM (inactive)		> 10 µM (inactive)	> 10 µM (inactive)	> 10 µM (inactive)	> 10 µM (inactive)	> 10 µM (inactive)	9.35 µM (inactive)	9.73 µM (inactive)	> 10 µM (inactive)	> 10 µM (inactive)	> 10 µM (inactive)	> 10 µM (inactive)	> 10 µM (inactive)	
CC1=NN(C(=O)c2ccccc2O)C(=O)/C1=C/c1cccc([N+](=O)[O-])c1	36.1 µM (inactive)	4.05	1.22 µM (inactive)	1.27 µM (inactive)	0.695 µM (active)	2.37 µM (inactive)	0.274 µM (active)	13.3 µM (inactive)	1.25 µM (inactive)	0.507 µM (active)	3.1 µM (inactive)	2.57 µM (inactive)	3.01 µM (inactive)	> 100 µM (inactive)	3.44 µM (inactive)	5.73 µM (inactive)		6.81 µM (inactive)	17.3 µM (inactive)	0.608 µM (active)
CCOC(=O)c1c(N2CCOCC2)[nH]c(=O)c(C(c2ccc(N(C)C)cc2)c2c(O)c(C(=O)OCC)c(N3CCOCC3)[nH]c2=O)c1O	> 100 µM (inactive)	> 100		> 100 µM (inactive)	59 µM (inactive)	> 100 µM (inactive)	> 100 µM (inactive)	46.6 µM (inactive)	> 100 µM (inactive)	> 100 µM (inactive)	> 100 µM (inactive)	> 100 µM (inactive)	> 100 µM (inactive)	> 100 µM (inactive)	> 100 µM (inactive)	> 100 µM (inactive)	> 100 µM (inactive)	> 100 µM (inactive)	> 100 µM (inactive)	
CC(C)C1=C(Cc2ccccc2)C(=O)O/C1=C\c1ccc(O)c(Cl)c1	14.6 µM (inactive)	16	15.7 µM (inactive)		18.4 µM (inactive)	17.5 µM (inactive)	16.6 µM (inactive)	12.4 µM (inactive)	16.6 µM (inactive)	16 µM (inactive)		16.7 µM (inactive)	16.9 µM (inactive)	10.4 µM (inactive)	19.1 µM (inactive)	18.8 µM (inactive)	13.6 µM (inactive)	> 10 µM (inactive)		16.5 µM (inactive)
CCOC(=O)NC(=O)c1cn(CCN2CCN(C(=O)CCCCCCCCCCNc3ncnc4c3ncn4C3OC(CO)C(O)C3O)CC2)c(=O)[nH]c1=O (centres undefined)	> 100 µM (inactive)	> 100	> 100 µM (inactive)	70.3 µM (inactive)	> 100 µM (inactive)	> 100 µM (inactive)			> 100 µM (inactive)	> 100 µM (inactive)	> 100 µM (inactive)	> 100 µM (inactive)	> 100 µM (inactive)	> 100 µM (inactive)	> 100 µM (inactive)	> 100 µM (inactive)				
O=C(OCC1OC(c2nn[nH]n2)C(OC(=O)c2ccccc2)C1OC(=O)c1ccccc1)c1ccccc1 (centres undefined)	> 100 µM (inactive)	> 100	> 100 µM (inactive)	> 100 µM (inactive)	> 100 µM (inactive)		79.8 µM (inactive)	18.6 µM (inactive)	76.7 µM (inactive)	> 100 µM (inactive)	> 100 µM (inactive)	> 100 µM (inactive)	> 100 µM (inactive)		> 100 µM (inactive)	> 100 µM (inactive)		> 100 µM (inactive)		> 100 µM (inactive)
CN(C)CC1CCC(CN(C)C)C(=O)C1=O (centres undefined)	20.9 µM (inactive)	3	2.36 µM (inactive)	1.99 µM (inactive)	8.63 µM (inactive)	5.52 µM (inactive)	4.41 µM (inactive)	2.52 µM (inactive)	6.75 µM (inactive)	16.6 µM (inactive)	19.3 µM (inactive)	16.3 µM (inactive)	18.4 µM (inactive)	2.09 µM (inactive)	1.83 µM (inactive)	2.4 µM (inactive)			2.31 µM (inactive)	> 10 µM (inactive)
ClCc1nc2ccccc2[nH]1	> 100 µM (inactive)	> 100	> 100 µM (inactive)	> 100 µM (inactive)	37.2 µM (inactive)	> 100 µM (inactive)	> 100 µM (inactive)	> 100 µM (inactive)	> 100 µM (inactive)	> 100 µM (inactive)	> 100 µM (inactive)	> 100 µM (inactive)	> 100 µM (inactive)	56 µM (inactive)	> 100 µM (inactive)	> 100 µM (inactive)	> 100 µM (inactive)	> 100 µM (inactive)	> 100 µM (inactive)	
Cc1ccc2nc(-c3ccc(N)c(I)c3)sc2c1	6.75 µM (inactive)	6.11	12.9 µM (inactive)	20.1 µM (inactive)		37.1 µM (inactive)	16 µM (inactive)		23.2 µM (inactive)	19.1 µM (inactive)	17.9 µM (inactive)	29.4 µM (inactive)		4.2 µM (inactive)	20.9 µM (inactive)	23.7 µM (inactive)	31 µM (inactive)	72.3 µM (inactive)		
CN(C)/N=N/c1ccc(C(N)=O)cc1	> 100 µM (inactive)	> 100	> 100 µM (inactive)	> 100 µM (inactive)	> 100 µM (inactive)	> 100 µM (inactive)	> 100 µM (inactive)	> 100 µM (inactive)	> 100 µM (inactive)	> 100 µM (inactive)	> 100 µM (inactive)	> 100 µM (inactive)	> 100 µM (inactive)	> 100 µM (inactive)	> 100 µM (inactive)	> 100 µM (inactive)				
COc1cc(C(=O)Nc2cccc3ccccc23)c(Br)c(OC)c1OC	> 100 µM (inactive)	> 100	24.2 µM (inactive)	42.2 µM (inactive)	80 µM (inactive)	> 100 µM (inactive)	36.3 µM (inactive)	42.8 µM (inactive)	97.1 µM (inactive)	> 100 µM (inactive)	> 100 µM (inactive)	41.1 µM (inactive)	> 100 µM (inactive)	> 100 µM (inactive)	> 100 µM (inactive)	> 100 µM (inactive)				
COc1cc(C(=O)O)cc2c1[nH]c1ccccc12 [MUKOEIC ACID]	> 25 µM (inactive)	> 25	> 25 µM (inactive)	> 25 µM (inactive)	> 25 µM (inactive)	> 25 µM (inactive)	> 25 µM (inactive)	> 25 µM (inactive)	> 25 µM (inactive)		> 25 µM (inactive)	> 25 µM (inactive)	> 25 µM (inactive)	> 25 µM (inactive)	> 25 µM (inactive)					
CC(O[Si](C)(C)C(C)(C)C)[C@H](NC(=O)OCC(Cl)(Cl)Cl)C(=O)O (some centres undefined)	> 100 µM (inactive)	> 100	> 100 µM (inactive)		> 10 µM (inactive)		> 100 µM (inactive)	84.7 µM (inactive)	> 100 µM (inactive)	51.2 µM (inactive)		> 100 µM (inactive)	> 100 µM (inactive)	> 100 µM (inactive)	> 100 µM (inactive)	> 100 µM (inactive)	> 100 µM (inactive)	> 100 µM (inactive)	> 100 µM (inactive)	
Clc1nc(Cl)c(Cl)c(-c2ccccc2)n1	22.2 µM (inactive)	11.4	> 100 µM (inactive)		1.86 µM (inactive)	1.77 µM (inactive)	24.3 µM (inactive)	5.24 µM (inactive)	23.9 µM (inactive)	3.93 µM (inactive)	15.4 µM (inactive)	2.43 µM (inactive)	20 µM (inactive)	0.322 µM (active)	1.94 µM (inactive)	20.5 µM (inactive)	2.73 µM (inactive)	5.62 µM (inactive)		
CCOP(=O)(/C=C\n1ccc(=O)[nH]c1=O)OCC		> 100	> 100 µM (inactive)		> 100 µM (inactive)	> 100 µM (inactive)	> 100 µM (inactive)	> 100 µM (inactive)	> 100 µM (inactive)	> 100 µM (inactive)	> 100 µM (inactive)	> 100 µM (inactive)	> 100 µM (inactive)		> 100 µM (inactive)	> 100 µM (inactive)		> 100 µM (inactive)	> 100 µM (inactive)	> 100 µM (inactive)
N#C/C(=C\c1cc(Cl)cc(Cl)c1)c1ccccn1	31 µM (inactive)	4.75	6.27 µM (inactive)			35.5 µM (inactive)	5.47 µM (inactive)	> 100 µM (inactive)	27.7 µM (inactive)	10.5 µM (inactive)	92 µM (inactive)	8.51 µM (inactive)	> 100 µM (inactive)	6.27 µM (inactive)	15.6 µM (inactive)	82.8 µM (inactive)		3.93 µM (inactive)		10.1 µM (inactive)
